# Laboratory results taken from patent publication US20260356819A1, “OXOISOINDOLINYL-SUBSTITUTED […] DERIVATIVE AND USE THEREOF” (GLUETACS THERAPEUTICS (SHANGHAI) CO., LTD., priority 2023, published 2026).
# Tests used:
# Assay type in all cases: cell-based
# Details in all cases: compounds at 50 nM and 500 nM
# [1] = molecular target: T1, WEE1 (Homo sapiens, UniProt P30291+Q96SW2); experiment: Western blot degradation of WEE1 in hPBMCs (24 h)
# T1 construct: The supernatant was aspirated as the extracted total cell protein; endogenous in cells; host or cells: human peripheral blood mononuclear cells (hPBMCs)
# T1 sequence (P30291 whole entry): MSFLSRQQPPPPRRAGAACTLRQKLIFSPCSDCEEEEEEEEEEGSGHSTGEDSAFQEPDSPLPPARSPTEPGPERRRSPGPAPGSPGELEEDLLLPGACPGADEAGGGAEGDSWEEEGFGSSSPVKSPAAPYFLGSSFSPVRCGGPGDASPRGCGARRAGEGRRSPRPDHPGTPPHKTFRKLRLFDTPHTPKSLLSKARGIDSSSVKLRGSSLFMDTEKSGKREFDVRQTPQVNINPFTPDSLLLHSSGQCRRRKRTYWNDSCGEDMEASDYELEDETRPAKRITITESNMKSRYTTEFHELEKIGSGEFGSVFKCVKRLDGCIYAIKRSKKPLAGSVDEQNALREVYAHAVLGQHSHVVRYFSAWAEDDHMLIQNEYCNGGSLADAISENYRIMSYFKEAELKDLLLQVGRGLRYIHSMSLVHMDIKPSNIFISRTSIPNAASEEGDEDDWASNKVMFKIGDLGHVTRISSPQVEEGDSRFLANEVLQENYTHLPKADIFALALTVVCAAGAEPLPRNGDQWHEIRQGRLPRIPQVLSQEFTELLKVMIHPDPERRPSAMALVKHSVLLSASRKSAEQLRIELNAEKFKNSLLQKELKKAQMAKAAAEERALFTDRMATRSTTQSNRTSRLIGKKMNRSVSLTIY
# T1 sequence (Q96SW2 whole entry): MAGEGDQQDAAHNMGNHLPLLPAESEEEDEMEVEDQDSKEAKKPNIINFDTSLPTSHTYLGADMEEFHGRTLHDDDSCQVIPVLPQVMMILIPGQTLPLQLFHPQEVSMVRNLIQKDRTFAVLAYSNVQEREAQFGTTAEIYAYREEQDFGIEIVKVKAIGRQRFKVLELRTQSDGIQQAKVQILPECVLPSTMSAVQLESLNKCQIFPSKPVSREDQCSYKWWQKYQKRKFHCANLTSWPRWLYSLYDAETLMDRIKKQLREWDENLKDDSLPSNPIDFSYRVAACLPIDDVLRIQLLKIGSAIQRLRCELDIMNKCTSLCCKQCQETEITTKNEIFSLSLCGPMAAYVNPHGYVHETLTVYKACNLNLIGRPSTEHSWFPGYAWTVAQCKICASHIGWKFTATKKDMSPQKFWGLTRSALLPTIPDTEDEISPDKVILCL
# T1 sequence (Q16531 whole entry partner): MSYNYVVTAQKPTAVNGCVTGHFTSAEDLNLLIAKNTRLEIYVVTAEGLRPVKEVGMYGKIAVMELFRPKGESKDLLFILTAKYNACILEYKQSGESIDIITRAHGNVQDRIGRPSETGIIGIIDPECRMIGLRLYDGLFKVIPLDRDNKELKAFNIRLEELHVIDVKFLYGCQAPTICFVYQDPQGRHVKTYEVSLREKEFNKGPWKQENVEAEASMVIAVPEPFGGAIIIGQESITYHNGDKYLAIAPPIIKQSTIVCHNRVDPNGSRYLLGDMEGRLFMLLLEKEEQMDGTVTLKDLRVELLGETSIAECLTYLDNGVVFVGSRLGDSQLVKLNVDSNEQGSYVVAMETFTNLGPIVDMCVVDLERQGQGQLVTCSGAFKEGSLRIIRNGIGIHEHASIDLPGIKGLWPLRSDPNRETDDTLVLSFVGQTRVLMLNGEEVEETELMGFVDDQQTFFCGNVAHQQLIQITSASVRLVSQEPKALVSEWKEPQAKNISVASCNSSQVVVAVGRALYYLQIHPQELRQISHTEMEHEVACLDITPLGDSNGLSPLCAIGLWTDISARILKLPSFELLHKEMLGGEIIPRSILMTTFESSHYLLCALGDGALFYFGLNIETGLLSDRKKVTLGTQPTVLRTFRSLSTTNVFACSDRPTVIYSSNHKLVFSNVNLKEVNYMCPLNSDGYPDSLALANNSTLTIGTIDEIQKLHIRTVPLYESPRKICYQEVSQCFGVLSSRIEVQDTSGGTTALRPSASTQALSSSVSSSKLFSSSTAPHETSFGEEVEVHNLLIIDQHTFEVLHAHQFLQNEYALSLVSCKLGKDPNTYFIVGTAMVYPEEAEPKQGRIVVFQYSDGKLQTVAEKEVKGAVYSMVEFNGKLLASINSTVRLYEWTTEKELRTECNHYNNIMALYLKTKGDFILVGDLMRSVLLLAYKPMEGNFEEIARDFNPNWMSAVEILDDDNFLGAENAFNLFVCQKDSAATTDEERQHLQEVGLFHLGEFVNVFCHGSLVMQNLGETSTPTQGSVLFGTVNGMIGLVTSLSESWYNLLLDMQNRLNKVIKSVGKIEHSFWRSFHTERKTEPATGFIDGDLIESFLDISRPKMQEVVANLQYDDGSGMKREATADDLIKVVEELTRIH
# Summary of the method: (§1)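 hPBMCs (1×10^6 cells/mL) exposed to compound at 50 nM and 500 nM for 24 h, DMSO as reference. Lysates run on SDS-PAGE and immunoblotted. Band grayscale normalized to internal control gives % protein remaining; DC50 from fitted concentration-response of band intensity versus DMSO.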
# [2] = molecular target: T2, IKZF3 (Homo sapiens, UniProt Q96SW2+Q9UKT9); experiment: Western blot degradation of IKZF3 in hPBMCs (24 h)
# T2 construct: The supernatant was aspirated as the extracted total cell protein; endogenous in cells; host or cells: human peripheral blood mononuclear cells (hPBMCs)
# T2 sequence (Q9UKT9 whole entry): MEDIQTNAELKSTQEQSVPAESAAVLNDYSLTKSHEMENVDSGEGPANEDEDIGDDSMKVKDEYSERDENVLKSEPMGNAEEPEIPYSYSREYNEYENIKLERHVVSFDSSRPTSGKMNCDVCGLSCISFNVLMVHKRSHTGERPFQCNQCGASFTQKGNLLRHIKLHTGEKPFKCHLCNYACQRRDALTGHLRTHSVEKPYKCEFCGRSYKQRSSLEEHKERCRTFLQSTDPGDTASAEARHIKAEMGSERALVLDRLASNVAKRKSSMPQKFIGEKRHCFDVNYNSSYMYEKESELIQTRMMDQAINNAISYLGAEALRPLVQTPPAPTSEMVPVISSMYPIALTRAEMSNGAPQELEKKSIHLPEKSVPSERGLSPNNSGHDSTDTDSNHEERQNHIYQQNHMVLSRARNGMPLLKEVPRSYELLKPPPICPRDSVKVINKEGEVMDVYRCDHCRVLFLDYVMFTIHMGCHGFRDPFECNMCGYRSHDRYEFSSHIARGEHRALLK
# T2 sequence (Q96SW2 whole entry): as the sequence (Q96SW2 whole entry) above
# T2 sequence (Q16531 whole entry partner): as the sequence (Q16531 whole entry partner) above
# Summary of the method: as §1
# [3] = molecular target: T3, GSPT1 (Homo sapiens, UniProt P15170+Q96SW2); experiment: Western blot degradation of GSPT1 in hPBMCs (24 h)
# T3 construct: The supernatant was aspirated as the extracted total cell protein; endogenous in cells; host or cells: human peripheral blood mononuclear cells (hPBMCs)
# T3 sequence (P15170 whole entry): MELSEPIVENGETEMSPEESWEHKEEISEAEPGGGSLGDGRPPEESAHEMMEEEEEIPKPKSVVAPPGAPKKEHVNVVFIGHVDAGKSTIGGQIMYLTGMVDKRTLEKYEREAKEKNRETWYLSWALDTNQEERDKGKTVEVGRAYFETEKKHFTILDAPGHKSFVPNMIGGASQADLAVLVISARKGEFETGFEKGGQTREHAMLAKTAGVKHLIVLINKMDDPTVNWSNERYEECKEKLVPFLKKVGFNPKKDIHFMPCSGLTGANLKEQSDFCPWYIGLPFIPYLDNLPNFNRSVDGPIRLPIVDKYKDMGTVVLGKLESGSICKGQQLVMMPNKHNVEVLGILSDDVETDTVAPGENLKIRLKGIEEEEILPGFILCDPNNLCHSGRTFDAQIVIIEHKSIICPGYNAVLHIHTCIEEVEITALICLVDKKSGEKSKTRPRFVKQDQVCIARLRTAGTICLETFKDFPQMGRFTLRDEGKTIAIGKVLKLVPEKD
# T3 sequence (Q96SW2 whole entry): as the sequence (Q96SW2 whole entry) above
# T3 sequence (Q16531 whole entry partner): as the sequence (Q16531 whole entry partner) above
# Summary of the method: as §1
# [4] = molecular target: T4, IKZF1 (Homo sapiens, UniProt Q13422+Q96SW2); experiment: Western blot degradation of IKZF1 in hPBMCs (24 h)
# T4 construct: The supernatant was aspirated as the extracted total cell protein; endogenous in cells; host or cells: human peripheral blood mononuclear cells (hPBMCs)
# T4 sequence (Q13422 whole entry): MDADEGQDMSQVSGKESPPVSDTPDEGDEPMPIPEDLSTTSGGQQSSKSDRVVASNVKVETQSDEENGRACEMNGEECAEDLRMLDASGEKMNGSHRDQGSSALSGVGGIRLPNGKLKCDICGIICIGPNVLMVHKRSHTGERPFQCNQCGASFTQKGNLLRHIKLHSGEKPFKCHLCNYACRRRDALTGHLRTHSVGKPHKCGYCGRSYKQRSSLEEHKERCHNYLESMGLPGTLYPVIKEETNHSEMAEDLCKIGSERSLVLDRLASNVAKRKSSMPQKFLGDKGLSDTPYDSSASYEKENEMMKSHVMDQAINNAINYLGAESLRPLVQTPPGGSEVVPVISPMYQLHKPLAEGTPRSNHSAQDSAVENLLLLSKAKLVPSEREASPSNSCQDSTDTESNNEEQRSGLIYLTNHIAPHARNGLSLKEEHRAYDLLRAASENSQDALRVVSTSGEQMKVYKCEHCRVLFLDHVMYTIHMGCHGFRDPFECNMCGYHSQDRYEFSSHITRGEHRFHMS
# T4 sequence (Q96SW2 whole entry): as the sequence (Q96SW2 whole entry) above
# T4 sequence (Q16531 whole entry partner): as the sequence (Q16531 whole entry partner) above
# Summary of the method: as §1
# [5] = molecular target: T5, CK1α (Homo sapiens, UniProt P48729+Q96SW2); experiment: Western blot degradation of CK1α in hPBMCs (24 h)
# T5 construct: The supernatant was aspirated as the extracted total cell protein; endogenous in cells; host or cells: human peripheral blood mononuclear cells (hPBMCs)
# Summary of the method: as §1
# [6] = molecular target: T6, IKZF2 (Homo sapiens, UniProt Q96SW2+Q9UKS7); experiment: Western blot degradation of IKZF2 in hPBMCs (24 h)
# T6 construct: The supernatant was aspirated as the extracted total cell protein; endogenous in cells; host or cells: human peripheral blood mononuclear cells (hPBMCs)
# T6 sequence (Q9UKS7 whole entry): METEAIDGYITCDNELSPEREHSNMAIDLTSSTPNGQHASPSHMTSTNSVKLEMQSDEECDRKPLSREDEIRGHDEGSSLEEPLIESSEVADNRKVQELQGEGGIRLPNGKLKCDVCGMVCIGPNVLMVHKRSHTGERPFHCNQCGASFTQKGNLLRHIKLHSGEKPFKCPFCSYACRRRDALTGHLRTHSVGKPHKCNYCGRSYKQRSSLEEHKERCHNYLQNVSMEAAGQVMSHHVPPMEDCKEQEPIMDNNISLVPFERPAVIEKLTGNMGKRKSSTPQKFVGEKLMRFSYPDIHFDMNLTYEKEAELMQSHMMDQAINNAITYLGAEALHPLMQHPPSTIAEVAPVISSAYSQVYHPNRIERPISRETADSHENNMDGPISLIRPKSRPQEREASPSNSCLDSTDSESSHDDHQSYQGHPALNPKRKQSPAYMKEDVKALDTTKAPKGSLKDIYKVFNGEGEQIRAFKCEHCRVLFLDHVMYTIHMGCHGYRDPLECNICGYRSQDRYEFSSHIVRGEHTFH
# T6 sequence (Q96SW2 whole entry): as the sequence (Q96SW2 whole entry) above
# T6 sequence (Q16531 whole entry partner): as the sequence (Q16531 whole entry partner) above
# Summary of the method: as §1
Compound,WEE1 substrate protein remaining % [1],IKZF3 substrate protein remaining % [2],GSPT1 substrate protein remaining % [3],IKZF1 substrate protein remaining % [4],CK1α substrate protein remaining % [5],IKZF2 substrate protein remaining % [6]
"O=C1CCN(N2C(=O)c3ccc(CN4CCN(c5ccc(C(F)(F)F)cn5)CC4)cc3C2=O)C(=O)N1 [GT-06968, 2-(2,4-dioxotetrahydropyrimidin-1(2H)-yl)-5-((4-(5-(trifluoromethyl)pyridin-2-yl)piperazin-1-yl)methyl)isoindoline-1,3-dione]",A (0% ≤ substrate protein remaining % ≤80%),B (80%< substrate protein remaining % ≤100%),B (80%< substrate protein remaining % ≤100%),B (80%< substrate protein remaining % ≤100%),B (80%< substrate protein remaining % ≤100%),A (0% ≤ substrate protein remaining % ≤80%)
"O=C1CCN(N2C(=O)c3ccc(CN4CCN(c5ncc(Cl)cc5Cl)CC4)cc3C2=O)C(=O)N1 [GT-06969, 5-((4-(3,5-dichloropyridin-2-yl)piperazin-1-yl)methyl)-2-(2,4-dioxotetrahydropyrimidin-1(2H)-yl)isoindoline-1,3-dione]",A (0% ≤ substrate protein remaining % ≤80%),B (80%< substrate protein remaining % ≤100%),B (80%< substrate protein remaining % ≤100%),B (80%< substrate protein remaining % ≤100%),B (80%< substrate protein remaining % ≤100%),A (0% ≤ substrate protein remaining % ≤80%)
"O=C1CCN(N2C(=O)c3ccc(CN4CCN(c5nccc(I)c5F)CC4)cc3C2=O)C(=O)N1 [GT-06970, 2-(2,4-dioxotetrahydropyrimidin-1(2H)-yl)-5-((4-(3-fluoro-4-iodopyridin-2-yl)piperazin-1-yl)methyl)isoindoline-1,3-dione]",A (0% ≤ substrate protein remaining % ≤80%),B (80%< substrate protein remaining % ≤100%),B (80%< substrate protein remaining % ≤100%),B (80%< substrate protein remaining % ≤100%),B (80%< substrate protein remaining % ≤100%),A (0% ≤ substrate protein remaining % ≤80%)
"O=C1CCN(N2C(=O)c3ccc(CN4CCN(c5cccnc5)CC4)cc3C2=O)C(=O)N1 [GT-06971, 2-(2,4-dioxotetrahydropyrimidin-1(2H)-yl)-5-((4-(pyridin-3-yl)piperazin-1-yl)methyl)isoindoline-1,3-dione]",A (0% ≤ substrate protein remaining % ≤80%),B (80%< substrate protein remaining % ≤100%),B (80%< substrate protein remaining % ≤100%),B (80%< substrate protein remaining % ≤100%),B (80%< substrate protein remaining % ≤100%),A (0% ≤ substrate protein remaining % ≤80%)
"O=C1CCN(N2C(=O)c3ccc(CN4CCN(c5cncc(Cl)c5Cl)CC4)cc3C2=O)C(=O)N1 [GT-06972, 5-((4-(4,5-dichloropyridin-3-yl)piperazin-1-yl)methyl)-2-(2,4-dioxotetrahydropyrimidin-1(2H)-yl)isoindoline-1,3-dione]",A (0% ≤ substrate protein remaining % ≤80%),B (80%< substrate protein remaining % ≤100%),B (80%< substrate protein remaining % ≤100%),B (80%< substrate protein remaining % ≤100%),B (80%< substrate protein remaining % ≤100%),A (0% ≤ substrate protein remaining % ≤80%)
